From article PMC8036666, “Biological and Physico-Chemical Characteristics of Arginine-Rich Peptide Gemini Surfactants with Lysine and Cystine Spacers” (International Journal of Molecular Sciences, 2021)
In brackets after ≈: the same amount, converted by molar mass. Several values for one entry are separate records, joined by “and”; a condition that tells them apart may be missing. Equal values may be shown once. Where a SMILES comes first, the peptide text is derived from it. Bridges are numbered along the chain shown (N, C = ends). Roman numbers before positions name the chains, in order. Side-chain parts run from the residue outwards. The star is where a group is joined. Lauroyl = CCCCCCCCCCCC(=O)*; Decanoyl = CCCCCCCCCC(=O)*; Octanoyl = CCCCCCCC(=O)*

Columns and labels:
[1] = tested on: Pseudomonas aeruginosa ATCC 9027; details: ATCC 9027, 24 h
Procedure: (§1) The Acinetobacter baumannii ATCC BAA-1605, Enterococcus faecium ATCC 700221, Escherichia coli ML-35 ATCC 43827, Klebsiella aerogenes ATCC 13048, Klebsiella pneumoniae ATCC 700603, Pseudomonas aeruginosa ATCC 9027, Staphylococcus aureus ATCC 25923, Staphylococcus aureus ATCC 33591, Candida albicans ATCC 10231, Candida glabrata ATCC 15126, strains were acquired from the American Type Culture Collection (ATCC). All the strains were stored at −80 °C in Roti-Store cryo vials and before the tests were transferred into fresh Mueller–Hinton broth (MHB, Biocorp, Warsaw, Poland) for bacteria or RPMI-1640 (Sigma-Aldrich, Steinheim, Germany) for fungi and incubated for 24 h at 37 °C. Then, the cultures were seeded on the Mueller–Hinton agar (BioMaxima, Lublin, Poland) or Sabouraud dextrose agar (SDA, BioMaxima, Lublin, Poland) plates, respectively, and incubated as just mentioned. These agar cultures were used for further microbiological assays. Cell densities for all assays were adjusted spectrophotometrically (Multiskan GO Microplate Spectrophotometer, Thermo Fisher Scientific, Vantaa, Finland) at 600 and 530 nm for bacteria and fungi, respectively.
(§2) The MICs were determined by the broth microdilution method according to the Clinical and Laboratory Standard Institute guidelines. […] The experiments were conducted on 96-well microtiter polystyrene plates (Kartell, Noviglio, Italy). The growth was assessed visually after incubation, and the MIC was assumed as the lowest peptide concentration at which a noticeable growth of microorganisms was inhibited. All experiments were conducted in triplicate.

[2] = tested on: Klebsiella aerogenes ATCC 13048; details: ATCC 13048, 24 h
Procedure: as §1, §2

[3] = tested on: Klebsiella pneumoniae ATCC 700603; details: ATCC 700603, 24 h
Procedure: as §1, §2

[4] = tested on: Acinetobacter baumannii ATCC BAA 1605; details: ATCC BAA 1605, 24 h
Procedure: as §1, §2

[5] = tested on: Enterococcus faecium ATCC 700221; details: ATCC 700221, 24 h
Procedure: as §1, §2

[6] = tested on: Staphylococcus aureus ATCC 25923; details: ATCC 25923, 24 h
Procedure: as §1, §2

[7] = tested on: C. albicans ATCC 10231; details: ATCC 10231, 24 h
Procedure: as §1
(§3) The MICs were determined by the broth microdilution method according to the Clinical and Laboratory Standard Institute guidelines. For this purpose, initial inoculums of bacteria (5 × 10^5 CFU/mL) in MHB and yeasts (2 × 10^3 CFU/mL) in RPMI-1640 with 2% D-glucose were exposed to the ranging concentration of lipopeptides (0.5–256 μg/mL) and incubated at 37 °C for 18 h and 24 h, respectively. The experiments were conducted on 96-well microtiter polystyrene plates (Kartell, Noviglio, Italy). The growth was assessed visually after incubation, and the MIC was assumed as the lowest peptide concentration at which a noticeable growth of microorganisms was inhibited. All experiments were conducted in triplicate.

[8] = tested on: C. glabrata ATCC 15126; details: ATCC 15126, 24 h
Procedure: as §1, §3

[9] = Lipopeptide hydrophobicity by RP-HPLC (adjusted retention time); assay type: physicochemical; details: for Adjusted Retention Time: RP-HPLC, 20–65% acetonitrile over 30 min, indicator of hydrophobicity
Procedure: (§4) The identity of the purified peptides was confirmed with electrospray ionization mass spectrometry (ESI-MS) in positive ion mode. Results of MS analyses and net charge are attached in Supplementary Materials (Table S1). Peptides’ hydrophobicity was evaluated by analytical reversed-phase high-performance liquid chromatography (RP-HPLC). The critical aggregation concentrations (CACs) of the lipopeptides were determined in unbuffered aqueous solution at 298 K by measuring the surface tension as a function of lipopeptide concentration. The measurements were carried out by the Du Noüy ring method on a K100 tensiometer. The surface tension data were plotted against the logarithm of lipopeptide concentration. CAC was found as the intersection of two lines being linear regression of data below and above CAC.
Lipopeptide hydrophobicity was determined as described previously. To do this, a Waters Alliance e2695 system with a Waters 2998 PDA Detector (software-Empower 3, Waters, Milford, MA, USA) was used. All analyses were carried out on a Waters X-Bridge Shield RP-18 column (3.0 × 100 mm, 3.5 μm particle size, 130 Å pore size). The Shield Technology column with embedded polar groups was used to minimize interactions of unreacted silanol groups with basic lipopeptides. The peptides were dissolved in water (0.1% TFA, v/v) up to a concentration of 1 mg/mL. UV detection at 214 nm was used, and samples (10 μL) were eluted with a linear 20–65% acetonitrile gradient in deionized water over 30 min at 25.0 ± 0.1 °C. The mobile phase flow rate was 0.5 mL/min. Both eluents contained 0.1% (v/v) of TFA. Each peptide sample was analyzed in triplicate. The maximum standard deviation and coefficient of variation were 0.044 and 0.85%, respectively.

[10] = Critical aggregation concentration by surface tension (Du Noüy ring, K100 tensiometer); assay type: physicochemical; details: unbuffered aqueous solution, 298 K
Procedure: as §4
The critical aggregation concentration (CAC) values were determined fully automatically using a K100 tensiometer (KRUSS, Hamburg, Germany) equipped with two micro dosimeters by measuring the surface tension vs. lipopeptide concentration. The measurements were performed in unbuffered aqueous solution at 298 K using the Du Noüy ring method. The accuracy of the surface tension measurements was 0.1 mN/m. The critical aggregation concentration (CAC) was defined as the intersection of two lines fitted to the experimental data collected before and after the inflection point.

Row | Structure (SMILES) | MIC Pseudomonas aeruginosa ATCC 9027 [1] [µg/mL] | MIC Klebsiella aerogenes ATCC 13048 [2] | MIC Klebsiella pneumoniae ATCC 700603 [3] | MIC Acinetobacter baumannii ATCC BAA 1605 [4] | MIC Enterococcus faecium ATCC 700221 [5] [µg/mL] | MIC Staphylococcus aureus ATCC 25923 [6] [µg/mL] | MIC C. albicans ATCC 10231 [7] [µg/mL] | MIC C. glabrata ATCC 15126 [8] [µg/mL] | Adjusted Retention Time [9] [min] | Difference in retention time calculated as tR’C—tR’B ([9]; between corresponding surfactants of series C and B) [min] | CAC [10] | Surface Tension at CAC [10] [mN/m]
1 | CCCCCCCCCC(=O)N[C@@H](CCCNC(=N)N)C(=O)N[C@@H](CCCNC(=N)N)C(=O)NCCCC[C@H](NC(=O)[C@H](CCCNC(=N)N)NC(=O)[C@H](CCCNC(=N)N)NC(=O)CCCCCCCCC)C(N)=O [Compound B2] (Decanoyl-Arg-Arg-Lys([Arg-Arg-Decanoyl])-NH2) | 8 (≈ 7.42 µM) | 128 µg/mL (≈ 119 µM) | 128 µg/mL (≈ 119 µM) | 8 µg/mL (≈ 7.42 µM) | 2 (≈ 1.85 µM) | 1 (≈ 0.927 µM) | 8 (≈ 7.42 µM) | 4 (≈ 3.71 µM) | 13.73 |  | 3.69 mM and 3980.0 μg/mL | 36
2 | CCCCCCC(CCCC)C(=O)N[C@@H](CCCNC(=N)N)C(=O)N[C@@H](CCCNC(=N)N)C(=O)NCCCC[C@H](NC(=O)[C@H](CCCNC(=N)N)NC(=O)[C@H](CCCNC(=N)N)NC(=O)C(CCCC)CCCCCC)C(N)=O (some centres unmarked) [Compound B7] | 4 (≈ 3.53 µM) | 16 µg/mL (≈ 14.1 µM) | 32 µg/mL (≈ 28.2 µM) | 32 µg/mL (≈ 28.2 µM) | 1 (≈ 0.881 µM) | 1 (≈ 0.881 µM) | 8 (≈ 7.05 µM) | 16 (≈ 14.1 µM) | 14.68 |  |  | 
3 | CCCCCCCC(=O)N[C@@H](CCCNC(=N)N)C(=O)N[C@@H](CCCNC(=N)N)C(=O)N[C@@H](CSSC[C@H](NC(=O)[C@H](CCCNC(=N)N)NC(=O)[C@H](CCCNC(=N)N)NC(=O)CCCCCCC)C(N)=O)C(N)=O [Compound C1] (I: Octanoyl-Arg-Arg-Cys-NH2 / II: Octanoyl-Arg-Arg-Cys-NH2; disulfide I:3-II:3) | 64 (≈ 57.4 µM) | >256 (−/−) µg/mL | >256 (−/−) µg/mL | 256 (−/−) µg/mL | 32 (≈ 28.7 µM) | 8 (≈ 7.17 µM) | 128 (≈ 115 µM) | 64 (≈ 57.4 µM) | 8.26 | 0.15 |  | 

Continued, in another order:

Row | MIC Pseudomonas aeruginosa ATCC 9027 [1] [µg/mL] | MIC Klebsiella aerogenes ATCC 13048 [2] | MIC Klebsiella pneumoniae ATCC 700603 [3] | MIC Acinetobacter baumannii ATCC BAA 1605 [4] | MIC Enterococcus faecium ATCC 700221 [5] [µg/mL] | MIC Staphylococcus aureus ATCC 25923 [6] [µg/mL] | MIC C. albicans ATCC 10231 [7] [µg/mL] | MIC C. glabrata ATCC 15126 [8] [µg/mL] | Adjusted Retention Time [9] [min] | Difference in retention time calculated as tR’C—tR’B ([9]; between corresponding surfactants of series C and B) [min] | Structure (SMILES) | CAC [10] | Surface Tension at CAC [10] [mN/m]
4 | 32 (≈ 31.3 µM) | >256 (−/−) µg/mL | >256 (−/−) µg/mL | 256 (−/−) µg/mL | 64 (≈ 62.6 µM) | 4 (≈ 3.91 µM) | 64 (≈ 62.6 µM) | 64 (≈ 62.6 µM) | 8.11 |  | CCCCCCCC(=O)N[C@@H](CCCNC(=N)N)C(=O)N[C@@H](CCCNC(=N)N)C(=O)NCCCC[C@H](NC(=O)[C@H](CCCNC(=N)N)NC(=O)[C@H](CCCNC(=N)N)NC(=O)CCCCCCC)C(N)=O [Compound B1] (Octanoyl-Arg-Arg-Lys([Arg-Arg-Octanoyl])-NH2) |  | 
5 | 4 (≈ 3.53 µM) | 32 µg/mL (≈ 28.2 µM) | 64 µg/mL (≈ 56.4 µM) | 8 µg/mL (≈ 7.05 µM) | 2 (≈ 1.76 µM) | 4 (≈ 3.53 µM) | 2 (≈ 1.76 µM) | 2 (≈ 1.76 µM) | 19.09 |  | CCCCCCCCCCCC(=O)N[C@@H](CCCNC(=N)N)C(=O)N[C@@H](CCCNC(=N)N)C(=O)NCCCC[C@H](NC(=O)[C@H](CCCNC(=N)N)NC(=O)[C@H](CCCNC(=N)N)NC(=O)CCCCCCCCCCC)C(N)=O [Compound B3] (Lauroyl-Arg-Arg-Lys([Arg-Arg-Lauroyl])-NH2) | 0.87 mM and 987.3 μg/mL | 41
